Holding throughout (settings): at 1 µM
Assay [1] deals with T1, Inhibitor of nuclear factor kappa-B kinase subunit epsilon (Homo sapiens) (UniProt Q14164).
T1 sequence (whole entry): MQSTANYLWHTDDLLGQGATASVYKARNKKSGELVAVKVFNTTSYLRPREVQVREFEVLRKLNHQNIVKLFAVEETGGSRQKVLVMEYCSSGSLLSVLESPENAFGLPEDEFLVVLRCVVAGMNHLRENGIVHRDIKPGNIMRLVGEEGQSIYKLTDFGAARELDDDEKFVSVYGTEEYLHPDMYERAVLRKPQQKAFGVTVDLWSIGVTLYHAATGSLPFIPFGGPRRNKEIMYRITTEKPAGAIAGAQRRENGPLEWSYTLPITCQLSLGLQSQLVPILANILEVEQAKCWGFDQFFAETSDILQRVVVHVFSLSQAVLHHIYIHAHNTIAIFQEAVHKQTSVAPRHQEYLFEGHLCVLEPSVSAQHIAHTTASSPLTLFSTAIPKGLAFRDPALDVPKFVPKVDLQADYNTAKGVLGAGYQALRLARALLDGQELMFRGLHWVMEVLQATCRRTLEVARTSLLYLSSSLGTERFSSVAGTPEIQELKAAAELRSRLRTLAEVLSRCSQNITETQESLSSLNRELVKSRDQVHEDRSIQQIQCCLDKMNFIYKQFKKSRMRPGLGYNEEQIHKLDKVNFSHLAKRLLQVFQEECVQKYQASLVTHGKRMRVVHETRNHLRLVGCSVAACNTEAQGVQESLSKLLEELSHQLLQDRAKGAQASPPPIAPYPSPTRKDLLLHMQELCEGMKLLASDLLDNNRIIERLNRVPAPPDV

Assay [2] addresses T2, Inhibitor of nuclear factor kappa-B kinase subunit beta (Homo sapiens) (UniProt O14920).
T2 sequence (whole entry): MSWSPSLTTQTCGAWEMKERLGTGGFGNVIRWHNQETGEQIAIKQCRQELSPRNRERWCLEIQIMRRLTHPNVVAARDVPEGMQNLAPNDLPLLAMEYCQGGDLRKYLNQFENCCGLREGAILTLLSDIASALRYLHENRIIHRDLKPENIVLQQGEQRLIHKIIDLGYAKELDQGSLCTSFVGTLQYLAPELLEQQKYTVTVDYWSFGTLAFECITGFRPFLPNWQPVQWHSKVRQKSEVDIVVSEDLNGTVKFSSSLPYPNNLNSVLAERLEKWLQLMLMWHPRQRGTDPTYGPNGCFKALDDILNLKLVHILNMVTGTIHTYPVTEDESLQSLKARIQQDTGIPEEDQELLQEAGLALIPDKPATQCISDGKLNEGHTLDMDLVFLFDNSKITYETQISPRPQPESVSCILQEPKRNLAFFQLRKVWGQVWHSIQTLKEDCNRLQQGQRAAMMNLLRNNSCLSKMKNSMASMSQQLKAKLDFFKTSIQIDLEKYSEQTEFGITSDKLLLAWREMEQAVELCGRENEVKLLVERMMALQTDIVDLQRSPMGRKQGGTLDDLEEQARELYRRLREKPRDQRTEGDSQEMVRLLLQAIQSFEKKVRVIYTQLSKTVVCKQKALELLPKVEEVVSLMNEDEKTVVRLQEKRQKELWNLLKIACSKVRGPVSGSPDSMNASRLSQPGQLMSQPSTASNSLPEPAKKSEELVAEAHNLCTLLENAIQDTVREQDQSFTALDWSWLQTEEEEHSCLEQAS

The target in assay [3] is T3, Inhibitor of nuclear factor kappa-B kinase subunit alpha (Homo sapiens) (UniProt O15111).
T3 sequence (whole entry): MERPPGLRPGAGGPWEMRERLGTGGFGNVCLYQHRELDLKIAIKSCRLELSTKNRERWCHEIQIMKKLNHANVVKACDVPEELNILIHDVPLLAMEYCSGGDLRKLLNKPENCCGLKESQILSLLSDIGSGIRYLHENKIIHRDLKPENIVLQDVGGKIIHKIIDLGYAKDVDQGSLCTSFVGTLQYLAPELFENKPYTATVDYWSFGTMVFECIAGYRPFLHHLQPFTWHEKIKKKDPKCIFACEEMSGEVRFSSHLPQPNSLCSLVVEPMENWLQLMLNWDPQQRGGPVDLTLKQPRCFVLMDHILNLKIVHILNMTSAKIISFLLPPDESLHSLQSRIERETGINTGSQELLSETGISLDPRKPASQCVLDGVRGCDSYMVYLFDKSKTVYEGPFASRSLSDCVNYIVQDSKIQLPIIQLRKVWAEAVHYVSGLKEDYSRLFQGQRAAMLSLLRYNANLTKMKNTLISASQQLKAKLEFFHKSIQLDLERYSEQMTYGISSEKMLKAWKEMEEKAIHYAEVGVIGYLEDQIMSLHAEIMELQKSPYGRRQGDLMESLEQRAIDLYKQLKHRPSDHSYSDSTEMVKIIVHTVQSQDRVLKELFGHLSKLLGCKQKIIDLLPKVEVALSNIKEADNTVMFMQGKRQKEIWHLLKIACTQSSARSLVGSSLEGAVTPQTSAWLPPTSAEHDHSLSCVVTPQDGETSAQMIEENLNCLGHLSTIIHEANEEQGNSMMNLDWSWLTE

Our source for the inhibition values is ChEMBL document CHEMBL2007661, “Compounds: GSK PKIS; Assays: UNC Frye lab” (2012).

Several values for one entry are separate records, joined by “and”; a condition that tells them apart may be missing. Equal entries are not always repeated.

As usually defined, the inhibition is the drop in the measured response relative to a control, in per cent.

On to `CCn1c(-c2nonc2N)nc2c(C#CC(C)(C)O)nc(OC[C@@H](N)c3ccccc3)cc21`, for which the inhibition in assay [1] is 39% and 40%; in assay [2], -6% and -5%; in assay [3] it was 13% and 12%.

With `COc1cc(N2CCN(C(C)C)CC2)ccc1Nc1nc(Nc2ccc(F)cc2C(N)=O)c2cc[nH]c2n1`, the inhibition was 6% and 4% in assay [1]; 0% and -4% in assay [2]; 3% in assay [3].

In the case of `Cc1ccc2c(-c3ccnc(Nc4cccc(C(F)(F)F)c4)n3)c(-c3ccccc3)nn2n1`, the inhibition in assay [1] was 1% and 3%; in assay [2], -3% and -6%; in assay [3] it was 6% and 4%.

`COC(=O)Nc1nc2cc(Oc3ccc(NC(=O)Nc4cccc(Br)c4)cc3)ccc2[nH]1`: the inhibition is -3% and 0% in assay [1]; -3% and -1% in assay [2]; 2% and 0% in assay [3].

Consider `Nc1nc(-c2cccc(Cl)c2)c(-c2ccc3ncccc3n2)s1`, for which the inhibition in assay [1] was 1%; in assay [2], -3% and -1%; in assay [3], 3% and -7%.

With `Nc1nccc(-c2c(-c3ccc(F)cc3)ncn2C2CCC(O)CC2)n1` (stereo unspecified), the inhibition was 0% and 1% in assay [1]; -2% and -3% in assay [2]; 4% and 10% in assay [3].

On to `COc1ccc2ncn(-c3cc(O[C@H](C)c4ccccc4Cl)c(C(N)=O)s3)c2c1`, for which the inhibition in assay [1] was -2%; in assay [2], 6% and 3%; in assay [3], 1% and -8%.

As for `N#Cc1cccc(Nc2ncc(-c3ccccc3)o2)c1`, the inhibition is 1% and -3% in assay [1]; -2% and -3% in assay [2]; 1% and -1% in assay [3].

In the case of `O=C(O[C@H]1CN[C@H](C#Cc2cc3ncnc(Nc4ccc(Cc5ccccc5)cc4)c3s2)C1)N1CCOCC1`, the inhibition in assay [1] is 4% and 2%; in assay [2], 2% and 3%; in assay [3], -7%.

Turning to `CN1CCC(n2cnc(-c3ccc(F)cc3)c2-c2ccnc(NCCO)n2)CC1`, the inhibition was -3% in assay [1]; -3% and -4% in assay [2]; 0% and 1% in assay [3].

As for `COc1cc2ncn(-c3cc(O[C@@H](C)c4ccccc4Cl)c(C(N)=O)s3)c2cc1OC`, the inhibition in assay [1] is 6% and 8%; in assay [2], 1%; in assay [3] it was 0% and 1%.

Take `O=C1NC(=O)C(c2cccc(Cl)c2)=C1Nc1ccc(Cl)c(C(=O)O)c1`: the inhibition was 5% in assay [1]; -8% and -3% in assay [2]; -6% and 2% in assay [3].
